The target of the experiment is T1, LXRα (Homo sapiens, UniProt Q13133).
T1 construct: human LXRalpha (amino acid 205-447); expressed in transfected cells; host or cells: U2/OS osteosarcoma cells electroporated with pSGGAL-LXRalpha (pSG5 vector)
T1 sequence (Q13133 205-447): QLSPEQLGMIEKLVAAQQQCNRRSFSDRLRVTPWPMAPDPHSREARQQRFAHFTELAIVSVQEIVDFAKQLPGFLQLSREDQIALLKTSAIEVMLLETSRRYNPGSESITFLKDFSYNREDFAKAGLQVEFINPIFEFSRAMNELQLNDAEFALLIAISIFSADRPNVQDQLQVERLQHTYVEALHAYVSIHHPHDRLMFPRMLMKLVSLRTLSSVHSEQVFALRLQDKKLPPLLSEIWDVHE
The experiment in a line: Transactivation (reporter gene) assay in U2/OS cells. The format is cell-based. The following applies: GAL4-LXRalpha LBD luciferase reporter, U2/OS osteosarcoma cells, 48 h. The procedure:
Expression vectors were prepared by inserting the ligand binding domain cDNA (complementary DNA) of human LXRalpha (amino acid 205-447) and LXRbeta (amino acid 216-461) in frame with, 3′ to the yeast GAL4 transcription factor DNA binding domain and the nuclear localization signal from the T-antigen of Polyoma Virus in the eucaryotic expression vector pSG5 (Stratagene). The resulting expression vectors pSGGAL-LXRalpha and pSGGAL-LXRbeta were used in cotransfection experiments together with the pGL3 luciferase reporter plasmid containing a minimal SV40 promoter (Promega) and five copies of the UAS GAL4 recognition site. 2.5 μg pSGGAL-LXRalpha or beta were mixed with […] pGL3 5xUAS and 22.5 μg pBluscript (Stratagene) in 0.95 mL ice cold PBS containing approx. 4-9 milj. U2/OS osteosarcoma cells. After a five minute incubation on ice the cell/DNA mixture was electroporated in 0.4 cm cuvettes at 960 μF, 230 V using a BioRad electroporator and diluted to 0.32 milj cells/mL in complete DMEM [Dulbecco's Modified Eagle Medium w/o phenol red, (Gibco 11880-028) including 10% FBS (Foetal Bovine Serum), 1% PEST (Penicillin Streptomycin), 20 mM Hepes, 2 mM L-Glutamine and 0.36% Glucose Gibco 31966-021] medium. […] Luciferase activity was measured as Luminescence in the Wallac Victor reader after 15 min. incubation at room temperature. […]

Experimental findings from US20080125396A1, “Derivatives of Isothiazol-3(2H)-Thione 1,1-Dioxides as Liver X Receptor Modulators” (AtraZeneca AB, priority 2005, published 2008) are described below.

pEC50: −log10 of the molar value.

For `CCCCN1C(=S)C(Nc2ccc(OC(F)F)cc2)=C(c2ccccc2)S1(=O)=O` [Example 1, 2-Butyl-4-{[4-(difluoromethoxy)phenyl]amino}-5-phenylisothiazole-3(2H)-thione 1,1-dioxide], the pEC50 is 6.02.
